We go through five compounds from patent US12215067B2, “Chemical compounds targeting the eye and use thereof in the treatment of eye diseases” (BIOPHYTIS, priority 2019, dated 2025).

Series [1] can be described thus: Pharmacokinetic study via oral administration in mice, plasma concentrations. The series is classed as in vivo, mice C57BL/6. As to the method: (§1) The pharmacokinetic study of the chemical compounds (C) following the oral administration thereof was conducted using mice C57BL/6 (January, 53940 The Genest Saint Isle, France). The chemical compounds derived from norbixin (C) were administered at a dose of 50 mg/kg of body weight. After administration, the blood was sampled at the tail at t=0.25 h; 0.5 h; 1 h; 3 h; 6 h and 8 h. The blood samples were centrifuged and the plasmas taken. The dosage of the plasma samples made it possible to determine pharmacokinetic parameters, namely Cmax, which corresponds to the maximum concentration observed after the administration of the molecule, Tmax which is the time required to reach maximum concentration after administration of the molecule and the AUC: the area under the curve which corresponds to the plasma exposure (FIG. 2).
(§2) The LC-MSMS analysis is carried out with a HPLC 1200 Infinity chain (Agilent Technologies, Santa-Clara, United States), a UV detector and a mass spectrometer QQQ6420 (Agilent Technologies Santa-Clara, United States). The injection volume is 5 μL. The chemical compounds C are eluted on an inverse phase column C18 (2.1*50 mm, particles 3 μm; Ace-C18-Excel, AIT) with a gradient of acetonitrile and water (containing 0.1% formic acid) and a flow rate of 0.3 mL/min. The conditions of the gradient can change according to the chemical compound C analyzed. The UV detector analyzes at 460 nm and the mass spectrometer analyzed in Mode MRM—Positive.
(§3) Table 2 discloses the pharmacokinetic results of the chemical compounds C following the administration p.o. 50 mg/kg in D-α-Tocopheryl polyethylene glycol 1000 succinate (VitE-TPGS) 20% in a sodium bicarbonate buffer (0.1M).

Series [2] has as its system primary cultures of RPE of adult pigs. Put plainly: In vitro photoprotection of RPE cells illuminated with blue light in the presence of A2E. It counts as cell-based, pig. Conditions: A2E 30 μM, survival 24 h after illumination; for viability at 5 µM / viability at 10 µM / viability at 20 µM: Sus scrofa, RPE. The source says: In addition to better distribution in the target-tissue, selecting new compounds must also be based on good photo-protective activity that limits the loss of the cells of the RPE and thus reducing the retinal degeneration observed during the AMD and other degenerative diseases such as Retinitis pigmentosa and Stargardt's disease. At the cellular level, on cultures of cells the RPE coming from pig retina, Fontaine et al. (2016) have shown that a treatment with norbixin (BIO201) protects the cells of the RPE against apoptosis following an illumination in the presence of A2E (80% survival 24 h after exposure). This same screening test according to the percentage of photoprotection was used so as to determine its modulation by and the chemical compounds derived from norbixin (C) object of the present invention in comparison with the photo-protective effect of norbixin and characterize these modulations from a statical standpoint.
The test in vitro described hereinabove and intended to study the photo-protective effect of norbixin was used so as to quantify the photo-protective effects of the various chemical compounds derived from norbixin (C) on the cells of the RPE illuminated with blue light in the presence of A2E (FIG. 3). The photo-protective effect of the molecules was evaluated in a phototoxicity cellular model induced by treatment by A2E followed by an illumination with blue light. The term “blue radiation” means the radiation corresponding to the blue band of the visible light spectrum, i.e. of a wavelength comprised between 435 and 490 nm. This model uses primary cultures of RPE of adult pigs. The cell survival is quantified thanks to a test of cellular viability. At −48 h the compounds to be tested (in solution at 5 mM in the DMSO) are added to obtain the final concentrations of 1 to 20 μM) then at −19 h of the A2E (final concentration 30 μM) and the cells (time 0 h) are illuminated. 24 h after the survival of the cells is measured. The acquisition of images, as well as the processing thereof, are carried out using a fluorescence microscope controlled by the Metamorph software and a dedicated quantification program. The experiments are conducted on a 96-well microplate in quadruplicate and the experiment is reproduced at least four times. The results are expressed in the form of a ratio representing the number of living cells in the wells treated by the molecules to be tested, divided by the number of living cells in the controlled wells (treated by the dilution medium without A2E). This test made it possible hereinabove to reveal the photo-protective activity of norbixin (Fontaine et al. 2016).

The nature of series [3]: Pharmacokinetic study via oral administration in mice, ocular concentrations. It counts as in vivo, mice C57BL/6. Conditions: for Eye Exposure 50 mg/kg p.o. AUC: Table 3, repeats the eye exposure of Table 2; for Tmax: C57BL/6, mouse, eye, po. As to the method: as §1
In parallel, the ocular concentrations of the chemical compounds derived from norbixin (C) were dosed in the following way (FIG. 1): both eyes of each mouse were taken in Precellys tubes and stored at −80° C. until the time of dosing. The eyes are then ground in the Precellys tubes with a bench homogenizer, Fast-prep (Fischer Scientific, Hampton, United States) in a mixture of organic solvents, in a first step with 500 μL of chloroform/methanol (1/1, v/v) then 500 μL of chloroform/dichloromethane (1/1, v/v). The supernatants are recovered at each step and transferred to a 96-well plate of 2 mL.
For the quantification of the chemical compounds C, a calibration curve is carried out with 8 standards (5 to 5,000 ng/mL) in the same organic solvent mixtures and transferred (100 μL) to the 96-well plate of 2 mL.
The supernatants and standards are evaporated in a EZ2 (Genevac, Ipswich, United Kingdom), without heating, then taken with 100 μL of DMSO/methanol (20:80, v/v) before being transferred to a 96-well plate of 200 μL.
as §2, §3

Series [4] relates to primary cultures of RPE of adult pigs. Conditions: 24 h after exposure; Fontaine et al. (2016); cited from earlier work.
[5] abbreviates: mice, p.o. 50 mg/kg in VitE-TPGS 20% in sodium bicarbonate buffer (0.1M).
Where [6] appears, read: mice, p.o. 50 mg/kg in VitE-TPGS 20% in sodium bicarbonate buffer (0.1M), area under the curve.
Setting [7] is: C57BL/6, mouse, in vivo, po, 50 mg/kg.

In general, Cmax refers to the maximum level reached in the sampled fluid or tissue. One may read the Tmax as the time at which the peak concentration occurs. In general, viability refers to a read-out of living cells in per cent, often relative to untreated cells.

Read-outs that look alike come from different tables or passages of the source.

Consider `CC(/C=C/C=C(C)/C=C/C(=O)O)=C\C=C\C=C(C)\C=C\C=C(C)\C=C\C(=O)O` [BIO201, 6,6′-diapocarotene-6,6′-dioate, reference compound], for which, in series [1] (setting [5]), the “Plasma CMax” value amounted to 34.99 µg/mL and the “Plasma TMax” value is recorded as 0.25 h. In addition, the “Plasma Exposure” value in series [1] (setting [6]) was determined as 100.7 µg·h/mL. Besides, the “Photoprotection (%) 5 μM Mean” value in series [2] (5 μM compound) came to 19.2%. The “Photoprotection (%) 10 μM Mean” value in series [2] (10 μM compound) came out at 34.1%. Further, the “Photoprotection (%) 20 μM Mean” value in series [2] (20 μM compound) is 63.6%. For the same compound, in series [3], the “Eye Exposure 50 mg/kg p.o. AUC” value worked out at 22.4 ng · h/eye. In series [3] (setting [5]), the “Eye CMax” value came to 8.6 ng/eye and the “Eye TMax” value was 0.5 h. Moreover, the “survival of RPE cells after illumination in the presence of A2E” value in series [4] was 80%.
Take `CC(=C/C=C/C(C)=C/C=C/C=C(C)/C=C/C=C(C)/C=C/C(=O)N1CCC(O)C1)/C=C/C(=O)O` (stereo in doubt) [C9, 1-[(S)-3-hydroxypyrrolidinamido](2E,4E,6E,8E,10E,12E,14E,16Z,18E)-4,8,13,17-tetramethylicosa-2,4,6,8,10,12,14,16,18-nonaenedioate]: in series [1] (setting [7]), the highest level (Cmax) was 37900 ng/mL, the “Plasma Exposure” value was found to be 342.68 µg·h/mL and the time of peak concentration (Tmax) turned out to be 1 h. Besides, in series [2] (5 μM compound), the viability at 5 µM was 22.1%. In series [2] (10 μM compound), the viability at 10 µM came to 32%. Further, in series [2] (20 μM compound), the viability at 20 µM was 63.7%. For the same compound, in series [3] (setting [5]), the Tmax was 1 h and the “Eye CMax” value is 53.1 ng/eye. Also, in series [3], the “Eye Exposure 50 mg/kg p.o. AUC” value worked out at 452.0 ng · h/eye.
As for `CC(=C/C=C/C(C)=C/C=C/C=C(C)/C=C/C=C(C)/C=C/C(=O)NCCN1CCOCC1)/C=C/C(=O)O` [C10, 1-[2-morpholinoethanamido](2E,4E,6E,8E,10E,12E,14E,16Z,18E)-4,8,13,17-tetramethylicosa-2,4,6,8,10,12,14,16,18-nonaenedioate], in series [1] (setting [7]), the peak level (Cmax) was 30400 ng/mL, the “Plasma Exposure” value is 108.1 µg·h/mL and the Tmax came out at 1 h. For the same compound, the viability at 5 µM in series [2] (5 μM compound) is 15.5%. In addition, in series [2] (10 μM compound), the viability at 10 µM was 27.4%. Moreover, the viability at 20 µM in series [2] (20 μM compound) worked out at 80.3%. Besides, in series [3] (setting [5]), the time to peak (Tmax) is 1 h and the “Eye CMax” value was found to be 64.3 ng/eye. Besides, the “Eye Exposure 50 mg/kg p.o. AUC” value in series [3] came out at 533.2 ng · h/eye.
Consider `CC(=C/C=C/C(C)=C/C=C/C=C(C)/C=C/C=C(C)/C=C/C(=O)N1CCOCC1)/C=C/C(=O)O` [C2, 1-[1,4-oxazinamido](2E,4E,6E,8E,10E,12E,14E,16Z,18E)-4,8,13,17-tetramethylicosa-2,4,6,8,10,12,14,16,18-nonaenedioate], for which the Cmax in series [1] (C57BL/6, mouse, in vivo, po, mice, p.o. 50 mg/kg in VitE-TPGS 20% in sodium bicarbonate buffer (0.1M), read-out: Plasma CMax) was found to be 34000 ng/mL. The Tmax in series [1] (C57BL/6, mouse, in vivo, po, mice, p.o. 50 mg/kg in VitE-TPGS 20% in sodium bicarbonate buffer (0.1M), read-out: Plasma TMax) came out at 0.5 h; in series [3] (setting [5]) it was 0.5 h. The “Plasma Exposure” value in series [1] (setting [6]) came to 176.2 µg·h/mL. Besides, the viability at 5 µM in series [2] (5 μM compound) amounted to 33.9%. For the same compound, in series [2] (10 μM compound), the viability at 10 µM is 22.3%. In addition, the viability at 20 µM in series [2] (20 μM compound) amounted to 49.1%. For the same compound, in series [3], the “Eye Exposure 50 mg/kg p.o. AUC” value amounted to 186.5 ng · h/eye. Besides, the “Eye CMax” value in series [3] (setting [5]) is 41 ng/eye.
Consider `COC1CCN(C(=O)/C=C/C(C)=C/C=C/C(C)=C/C=C/C=C(C)/C=C/C=C(C)\C=C\C(=O)O)CC1` [C24, 1-[4-methoxypiperidinamido](2E,4E,6E,8E,10E,12E,14E,16Z,18E)-4,8,13,17-tetramethylicosa-2,4,6,8,10,12,14,16,18-nonaenedioate], for which, in series [1] (setting [7]), the highest level (Cmax) was 48300 ng/mL, the “Plasma Exposure” value worked out at 141.9 µg·h/mL and the Tmax turned out to be 0.5 h. Besides, the viability at 5 µM in series [2] (5 μM compound) was 47%. Also, the viability at 10 µM in series [2] (10 μM compound) came to 69%. Also, the viability at 20 µM in series [2] (20 μM compound) was 84%. Besides, in series [3] (setting [5]), the time of peak concentration (Tmax) was 1.5 h and the “Eye CMax” value is reported as 96 ng/eye. Moreover, the “Eye Exposure 50 mg/kg p.o. AUC” value in series [3] was found to be 499.1 ng · h/eye.
